Data: article PMC12679585, “Design, synthesis, and characterization of novel 5-ethylsulfonyl-indazole-3-carboxamides as dual VEGFR-2 and EGFR inhibitors: apoptotic antiproliferative and immunomodulatory evaluations” (RSC Advances, 2025)
Values joined by “and” are separate entries in the source; they are usually repeats but may differ in a detail not shown here. Equal entries are not always repeated.

Legend:
HCT-116 and MCF-7 = assay: Antiproliferative assay, average over the two cell lines; assay type: cell-based; conditions: Homo sapiens; average of HCT-116 and MCF-7; read-out: Average IC50 (GI50)
Source text: The MTT assay[53,54] was employed to evaluate the antiproliferative efficacy of new compounds 8a–l against two human cancer cell lines: MCF-7 (breast) and HCT-116 (colorectal carcinoma). Erlotinib was employed as the benchmark. Check Appendix A for additional experimental information.
The MTT assay[53,54] was used to evaluate the antiproliferative properties of novel compounds 8a–l against two human cancer cell lines: MCF-7 (breast cancer) and HCT-116 (colorectal carcinoma). Erlotinib was utilized as the reference. […] The provided values represent the means of three experiments ± standard deviation (SD).

Bcl-2 = assay: Apoptotic markers assay: Bcl-2 level in HCT-116 cells; assay type: cell-based, human
Source text: (§1) Appendix A gives more details.
(§2) Apoptosis dysregulation is a hallmark of human cancer, resulting in uncontrolled proliferation, insufficient response to treatments, and the formation of drug-resistant cells.[60] As a result, current anticancer therapies are recognized for their ability to induce apoptosis in cancer cells via both extrinsic and intrinsic routes.[56]
The Bcl-2 protein family, comprising pro-apoptotic proteins (Bax) and anti-apoptotic proteins (Bcl-2), primarily regulates apoptosis. […] As a result, we evaluated the level of Bcl-2 and Bax proteins in HCT-116 colorectal cancer cells subjected to treatments with compounds 8g and 8h. […]
wash solution to every well. Repeat the wash 4 more times for a total of 5 washes. After the final wash, empty or aspirate the wells and firmly tap the plate on a lint free paper towel to remove any remaining wash buffer. Pipet 100 μL of yellow Antibody into each well, except the Blank. Seal the plate and incubate at room temperature on a plate shaker for 1 hour at ~500 rpm. Empty the contents of the wells and wash by adding 400 μL of […]
towel to remove any remaining wash buffer. Add 100 μL of blue Conjugate to each […]
for 30 minutes at ~500 rpm. Empty the contents of the wells and wash by adding 400 μL of wash solution to every well. Repeat the wash 4 more times for a total of 5 washes.
After the final wash, empty or aspirate the wells and firmly tap the plate on a lint free paper towel to remove any remaining wash buffer. Pipet 100 μL of Substrate Solution into each well. Incubate for 30 minutes at room temperature on a plate shaker at ~500 rpm. Pipet 100 μL Stop Solution to each well. Blank the plate reader against the Blank wells, read the optical density at 450 nm. Calculate the average net Optical Density (OD) bound for each standard and sample by subtracting the average Blank OD from the average OD for each standard and sample. […]
Approximate a straight line through the points. The concentration of Bax in the unknowns can be determined by interpolation. […]

p53 = assay: Apoptotic markers assay: p53 level in HCT-116 cells; assay type: cell-based, human
Source text: as §1, §2
The ability of p53 overexpression to trigger apoptosis may clarify the common inactivation of p53 enzymes by cancer cells during transformation.[63]

[1] = In vitro cytotoxicity against normal human cells (MTT); assay type: cell-based; conditions: human, WI-38 cells (normal human diploid cell line), normal human diploid cell line WI-38, MTT
Source text: (§3) The results indicated a favorable safety margin for the evaluated compounds about normal cells, Table 5.

WI-38 = assay: as above; assay type: cell-based; conditions: for Selectivity index (SI), HCT-116: WI-38 versus HCT-116; for Selectivity index (SI), MCF-7: WI-38 versus MCF-7; for IC50: normal human diploid cell line WI-38, MTT
Source text: as §3

VEGFR-2 = VEGFR-2 (Homo sapiens, UniProt P35968); assay: VEGFR-2 inhibitory assay
Protocol: Prepare all the solutions using autoclaved, deionized water and analytical grade
reagents. Prepare and store all the reagents at room temperature (unless indicated
EDTA, adjust the pH to 8.0 using NaOH solution, add 5 mL ultra-pure water; 1×Kinase
solution (1 M), 1 mL DTT, 50 μL tween-20, 450 mL ultrapure water, adjust pH to 7.5
and constant volume to 500 mL using ultrapure water; 4×Stop solution (40 mM): Mix
0.8 mL of the foregoing EDTA solution, 1 mL 10×Detection Buffer and 8.2 mL ultra-
pure water; 1×Detection Buffer: Mix 1 mL 10×Detection Buffer with 9 mL water;
before use). The assays used an ULight-labeled peptide substrate and a Europium-
W1024-labeled antiphosphotyrosine antibody. The VEGFR-2 was purchased from
Carna Biosciences, Inc. (New York, USA). The 384-well plates were obtained from
PerkinElmer. Compounds were dissolved in DMSO and diluted to 11 concentrations at
2×VEGFR-2 kinase solution (0.5 nM) was added to 384-well plates homogeneous
mixing and pre-reaction at room temperature for 30 min. […]
well plate, The final concentration of DMSO in the mixing system was 4%. […] The plate was read using an Envision plate reader. The inhibition rate (%) = (positive well reading-compound well reading)/(positive well reading-negative well reading)×100. The corresponding IC50 values were calculated using GraphPad Prism 5.0.

EGFR = EGFR (Homo sapiens, UniProt P00533); assay: EGFR inhibitory assay (EGFR-TK assay)
Protocol: Erlotinib was used as positive control in the assay.
To record autophosphorylation level, EGFR kinase assay was carried out on the basis of DELFIA/Time-Resolved Fluorometry. The compounds were first dissolved in DMSO
absolute, subsequent to dilution to appropriate concentration using HEPES (25 mM) at
pH 7.4. Each compound (10 μL) was incubated with recombinant enzyme (10 μL, 5 ng for EGFR, 1:80 dilution in 100 mM HEPES) for 10 min at 25 °C, subsequent to the addition of 5X buffer (10 μL, containing 2 mM MnCl2, 100 μM Na3VO4, 20 mM HEPES and 1 mM DTT) and ATP-MgCl2 (20 μL, containing 0.1 mM ATP and 50 mM MgCl2) and incubation for 1h. The negative and positive controls were included in each plate by the incubation of enzyme either with or without ATP-MgCl2. The liquid was removed after incubation and the plates were washed thrice using a wash buffer.
Europium-tagged antiphosphotyrosine antibody (75 μL, 400 ng) was added to each well followed by incubation of 1h and then washing of the plates using buffer. The enhancement solution was added to each well and the signal was recorded at excitation
The autophosphorylation percentage inhibition by compounds was calculated using the following equation:
Using the curves of percentage inhibition of eight concentrations of each compound,
were from EGFR because the enzyme preparation contained low impurities.

Caspase-8 = Caspase-8 activation assay in HCT-116 cells; conditions: for Caspase-8 fold change: relative to control

Chain of VEGFR-2 (P35968 20-1356): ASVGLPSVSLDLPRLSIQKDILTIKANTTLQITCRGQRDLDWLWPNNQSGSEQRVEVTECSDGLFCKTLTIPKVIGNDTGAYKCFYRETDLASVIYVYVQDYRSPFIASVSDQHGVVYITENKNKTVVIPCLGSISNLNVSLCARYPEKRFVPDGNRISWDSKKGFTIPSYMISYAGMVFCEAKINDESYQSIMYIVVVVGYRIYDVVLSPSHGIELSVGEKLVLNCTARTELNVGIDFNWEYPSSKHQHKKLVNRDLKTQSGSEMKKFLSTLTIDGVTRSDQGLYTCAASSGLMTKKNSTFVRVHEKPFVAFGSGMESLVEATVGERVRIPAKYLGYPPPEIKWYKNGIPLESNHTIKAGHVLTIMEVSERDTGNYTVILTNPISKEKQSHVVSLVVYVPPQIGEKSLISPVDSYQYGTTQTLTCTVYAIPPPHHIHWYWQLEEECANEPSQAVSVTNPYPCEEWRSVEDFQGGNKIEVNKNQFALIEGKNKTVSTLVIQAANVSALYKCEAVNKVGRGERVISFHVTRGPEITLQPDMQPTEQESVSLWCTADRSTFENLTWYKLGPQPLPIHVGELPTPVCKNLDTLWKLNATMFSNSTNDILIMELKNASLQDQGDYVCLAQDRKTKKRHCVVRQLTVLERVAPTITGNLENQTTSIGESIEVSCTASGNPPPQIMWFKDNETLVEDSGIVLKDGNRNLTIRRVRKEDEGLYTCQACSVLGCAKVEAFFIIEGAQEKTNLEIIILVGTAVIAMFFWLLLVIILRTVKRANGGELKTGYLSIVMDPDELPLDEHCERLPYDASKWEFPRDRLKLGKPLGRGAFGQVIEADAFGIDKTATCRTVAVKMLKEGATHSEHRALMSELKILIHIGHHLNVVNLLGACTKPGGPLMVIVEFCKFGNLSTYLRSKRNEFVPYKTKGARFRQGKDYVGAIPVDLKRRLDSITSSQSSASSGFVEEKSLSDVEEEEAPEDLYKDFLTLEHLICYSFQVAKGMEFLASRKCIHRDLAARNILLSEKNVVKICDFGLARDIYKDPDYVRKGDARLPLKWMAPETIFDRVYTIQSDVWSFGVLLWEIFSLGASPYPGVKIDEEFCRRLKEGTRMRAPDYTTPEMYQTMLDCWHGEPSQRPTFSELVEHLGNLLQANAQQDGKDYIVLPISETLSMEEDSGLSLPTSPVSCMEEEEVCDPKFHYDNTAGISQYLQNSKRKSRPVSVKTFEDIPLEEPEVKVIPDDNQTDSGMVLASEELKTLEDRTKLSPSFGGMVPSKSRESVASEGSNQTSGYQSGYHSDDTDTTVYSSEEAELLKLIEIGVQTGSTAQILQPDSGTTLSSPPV
Chain of EGFR (P00533 669-1210): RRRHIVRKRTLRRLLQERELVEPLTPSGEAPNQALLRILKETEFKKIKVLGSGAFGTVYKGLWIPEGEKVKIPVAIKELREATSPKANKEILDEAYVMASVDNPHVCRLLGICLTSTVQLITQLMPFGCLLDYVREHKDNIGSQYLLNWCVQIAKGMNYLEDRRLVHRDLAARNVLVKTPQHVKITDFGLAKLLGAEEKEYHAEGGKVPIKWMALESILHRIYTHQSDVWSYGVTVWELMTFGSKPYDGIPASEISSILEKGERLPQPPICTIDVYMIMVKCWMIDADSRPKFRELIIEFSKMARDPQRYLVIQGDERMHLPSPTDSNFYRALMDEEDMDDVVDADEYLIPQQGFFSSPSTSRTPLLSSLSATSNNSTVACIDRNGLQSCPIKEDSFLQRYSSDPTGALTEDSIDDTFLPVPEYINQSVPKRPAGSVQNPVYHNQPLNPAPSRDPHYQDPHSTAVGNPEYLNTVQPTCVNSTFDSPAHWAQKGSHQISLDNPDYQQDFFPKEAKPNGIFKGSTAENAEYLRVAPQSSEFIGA

IC50 (HCT-116 and MCF-7) [nM] | IC50 (VEGFR-2) [nM] | IC50 (EGFR) [nM] | SMILES | Bcl-2 level (Bcl-2) [ng/mL] | p53 level (p53) [pg/mL] | IC50 [1] [nM] | Selectivity index (SI), HCT-116 (WI-38) | Selectivity index (SI), MCF-7 (WI-38) | IC50 (WI-38) [nM] | Caspase-8 Conc. (Caspase-8) [ng/mL] | Caspase-8 fold change (Caspase-8) | Bcl-2 fold reduction (Bcl-2; relative to untreated control) [fold]
26 | 16 ± 1 | 71 ± 5 | CCS(=O)(=O)c1ccc2[nH]nc(C(=O)NNC(=O)NC34CC5CC(CC(C5)C3)C4)c2c1 [Compound 8g, 2-(5-(Ethylsulfonyl)-1H-indazole-3-carbonyl)-N-(adamantan-1-yl)hydrazine-1-carboxamide] | 1.60 ± 0.001 | 320 ± 2 | > 120 | >6.0 | >5.0 | > 150 | 1.80 ± 0.10 | 18 fold and 18.00 fold | 
24 | 12 ± 1 | 68 ± 5 | CCS(=O)(=O)c1ccc2[nH]nc(C(=O)NNC(=O)NC3CCCCCC3)c2c1 [Compound 8h, 2-(5-(Ethylsulfonyl)-1H-indazole-3-carbonyl)-N-(cycloheptyl)hydrazine-1-carboxamide] | 1.30 ± 0.001 | 355 ± 2 | > 120 | >6.5 | >6.0 | > 150 | 2.15 ± 0.20 | 21 fold and 21.50 fold | 3.90
